Laboratory results taken from patent US10214508B2, “Nitrogen-containing heterocyclic compound” (Takeda Pharmaceutical Company Limited, priority 2014, dated 2019).

What follows are compounds tested against T1, human M1 receptor (hCHRM1) (Homo sapiens, UniProt P11229) (assay: Measurement of M1 receptor positive allosteric modulator (M1PAM) activity, calcium fluorescence (FLIPRtetra)). Conditions: 10 μM test compound with acetylcholine at EC20 (final 0.6-0.8 nM); 100% = acetylcholine 1 μM, 0% = DMSO; CHO-K1 cells expressing hCHRM1.
T1 construct: expressed in transfected cells
T1 sequence (P11229 1-460): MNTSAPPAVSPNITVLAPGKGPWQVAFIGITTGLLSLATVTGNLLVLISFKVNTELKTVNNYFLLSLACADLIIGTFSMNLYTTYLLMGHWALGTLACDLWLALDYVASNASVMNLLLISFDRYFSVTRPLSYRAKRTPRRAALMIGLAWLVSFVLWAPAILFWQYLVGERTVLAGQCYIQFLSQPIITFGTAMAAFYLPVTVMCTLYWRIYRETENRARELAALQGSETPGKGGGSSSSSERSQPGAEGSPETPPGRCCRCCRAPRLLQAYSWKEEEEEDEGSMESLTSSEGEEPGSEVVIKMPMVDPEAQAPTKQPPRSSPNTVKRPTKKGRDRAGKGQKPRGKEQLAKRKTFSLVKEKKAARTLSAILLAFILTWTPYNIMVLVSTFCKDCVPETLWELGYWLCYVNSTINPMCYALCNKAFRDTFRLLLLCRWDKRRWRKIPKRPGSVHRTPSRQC
Assay type: cell-based
Summary of the method: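 CHO-K1 cells stably expressing hM1 were Fluo-4-loaded; compound added with acetylcholine at EC20 (0.6-0.8 nM final), calcium fluorescence read 1 min on FLIPRtetra. Activity scaled between DMSO (0%) and 1 μM acetylcholine (100%); inflection point of concentration–response reported as IP.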

Row | SMILES | activity (%) at 10 μM [%]
1 | O=C(N[C@H]1CCCC[C@@H]1O)c1cc(Cc2ccc(-n3cccn3)cc2)c(OC(F)F)cn1 [Example 94, 5-(difluoromethoxy)-N-((1S,2S)-2-hydroxycyclohexyl)-4-(4-(1H-pyrazol-1-yl)benzyl)pyridine-2-carboxamide] | 101
2 | O=C(N[C@H]1COCC[C@@H]1O)c1cc(Cc2ccc(-n3cccn3)cc2)c(OC(F)F)cn1 [Example 95, 1,5-anhydro-2,4-dideoxy-2-(((5-(difluoromethoxy)-4-(4-(1H-pyrazol-1-yl)benzyl)pyridin-2-yl)carbonyl)amino)-L-threo-pentitol] | 99
3 | Cc1nc(C(=O)N[C@H]2COCC[C@@H]2O)cc(Cc2ccc(-c3ccn(C)n3)cc2)c1Cl [Example 96, 1,5-anhydro-2-(((5-chloro-6-methyl-4-(4-(1-methyl-1H-pyrazol-3-yl)benzyl)pyridin-2-yl)carbonyl)amino)-2,4-dideoxy-L-threo-pentitol] | 112
4 | Cc1nc(C(=O)N[C@H]2CCC[C@@H]2O)cc(Cc2ccc(-c3ccn(C)n3)cc2)c1Cl [Example 97, 5-chloro-N-((1S,2S)-2-hydroxycyclopentyl)-6-methyl-4-(4-(1-methyl-1H-pyrazol-3-yl)benzyl)pyridine-2-carboxamide] | 93
5 | Cc1nc(C(=O)N[C@H]2CCCC[C@@H]2O)cc(Cc2ccc(-n3cccn3)cc2)c1Cl [Example 98, 5-chloro-N-((1S,2S)-2-hydroxycyclohexyl)-6-methyl-4-(4-(1H-pyrazol-1-yl)benzyl)pyridine-2-carboxamide] | 94
6 | Cc1nc(C(=O)N[C@H]2COCC[C@@H]2O)cc(Cc2ccc(-n3cccn3)cc2)c1Cl [Example 99, 1,5-anhydro-2-(((5-chloro-6-methyl-4-(4-(1H-pyrazol-1-yl)benzyl)pyridin-2-yl)carbonyl)amino)-2,4-dideoxy-L-threo-pentitol] | 96
7 | Cc1nc(C(=O)N[C@H]2CCC[C@@H]2O)cc(Cc2ccc(-n3cccn3)cc2)c1Cl [Example 100, 5-chloro-N-((1S,2S)-2-hydroxycyclopentyl)-6-methyl-4-(4-(1H-pyrazol-1-yl)benzyl)pyridine-2-carboxamide] | 97
8 | Cc1nc(C(=O)N[C@H]2COCC[C@@H]2O)cc(Cc2ccc(C#N)cc2)c1Cl [Example 101, 1,5-anhydro-2-(((5-chloro-4-(4-cyanobenzyl)-6-methylpyridin-2-yl)carbonyl)amino)-2,4-dideoxy-L-threo-pentitol] | 105
9 | COc1ccc(Cc2cc(C(=O)N[C@H]3COCC[C@@H]3O)nc(C)c2Cl)cc1 [Example 102, 1,5-anhydro-2-(((5-chloro-4-(4-methoxybenzyl)-6-methylpyridin-2-yl)carbonyl)amino)-2,4-dideoxy-L-threo-pentitol] | 104
10 | Cc1nc(C(=O)N[C@H]2CCCC[C@@H]2O)cc(Cc2ccc(Cl)nc2)c1Cl [Example 103, 5-chloro-4-((6-chloropyridin-3-yl)methyl)-N-((1S,2S)-2-hydroxycyclohexyl)-6-methylpyridine-2-carboxamide] | 109
11 | Cc1nc(C(=O)N[C@H]2CCCC[C@@H]2O)cc(Cc2ccc(C#N)nc2)c1Cl [Example 104, 5-chloro-4-((6-cyanopyridin-3-yl)methyl)-N-((1S,2S)-2-hydroxycyclohexyl)-6-methylpyridine-2-carboxamide] | 102
12 | COc1ccc(Cc2cc(C(=O)N[C@H]3CCCC[C@@H]3O)nc(C)c2Cl)cn1 [Example 105, 5-chloro-N-((1S,2S)-2-hydroxycyclohexyl)-4-((6-methoxypyridin-3-yl)methyl)-6-methylpyridine-2-carboxamide] | 100
13 | COc1ccc(Cc2cc(C(=O)N[C@H]3COCC[C@@H]3O)nc(C)c2Cl)cn1 [Example 106, 1,5-anhydro-2-(((5-chloro-4-((6-methoxypyridin-3-yl)methyl)-6-methylpyridin-2-yl)carbonyl)amino)-2,4-dideoxy-L-threo-pentitol] | 104
14 | Cc1nc(C(=O)N[C@H]2CCCC[C@@H]2O)cc(Cc2ccc(-c3ccn(C)n3)nc2)c1Cl [Example 107, 5-chloro-N-((1S,2S)-2-hydroxycyclohexyl)-6-methyl-4-((6-(1-methyl-1H-pyrazol-3-yl)pyridin-3-yl)methyl)pyridine-2-carboxamide] | 101
15 | CCn1cc(-c2ccc(Cc3cc(C(=O)N[C@H]4CCCC[C@@H]4O)nc(C)c3Cl)cn2)cn1 [Example 108, 5-chloro-4-((6-(1-ethyl-1H-pyrazol-4-yl)pyridin-3-yl)methyl)-N-((1S,2S)-2-hydroxycyclohexyl)-6-methylpyridine-2-carboxamide] | 114
16 | Cc1nn(C)cc1-c1ccc(Cc2cc(C(=O)N[C@H]3CCCC[C@@H]3O)nc(C)c2Cl)cn1 [Example 109, 5-chloro-4-((6-(1,3-dimethyl-1H-pyrazol-4-yl)pyridin-3-yl)methyl)-N-((1S,2S)-2-hydroxycyclohexyl)-6-methylpyridine-2-carboxamide] | 95
17 | Cc1ccc(Cc2cc(C(=O)N[C@H]3CCCC[C@@H]3O)nc(C)c2Cl)cn1 [Example 110, 5-chloro-N-((1S,2S)-2-hydroxycyclohexyl)-6-methyl-4-((6-methylpyridin-3-yl)methyl)pyridine-2-carboxamide] | 95
18 | Cc1ccc(Cc2cc(C(=O)N[C@H]3COCC[C@@H]3O)nc(C)c2Cl)cn1 [Example 111, 1,5-anhydro-2-(((5-chloro-6-methyl-4-((6-methylpyridin-3-yl)methyl)pyridin-2-yl)carbonyl)amino)-2,4-dideoxy-L-threo-pentitol] | 90
19 | Cc1nc(C(=O)N[C@H]2CCCC[C@@H]2O)cc(Cc2ccc(-n3cccn3)cc2)c1C#N [Example 112, 5-cyano-N-((1S,2S)-2-hydroxycyclohexyl)-6-methyl-4-(4-(1H-pyrazol-1-yl)benzyl)pyridine-2-carboxamide] | 91
20 | Cc1nc(C(=O)N[C@H]2COCC[C@@H]2O)cc(Cc2ccc(-n3cccn3)cc2)c1C#N [Example 113, 1,5-anhydro-2-(((5-cyano-6-methyl-4-(4-(1H-pyrazol-1-yl)benzyl)pyridin-2-yl)carbonyl)amino)-2,4-dideoxy-L-threo-pentitol] | 94
21 | Cc1nc(C(=O)N[C@H]2CCCC[C@@H]2O)cc(Cc2ccc(-c3ccn(C)n3)cc2)c1C#N [Example 114, 5-cyano-N-((1S,2S)-2-hydroxycyclohexyl)-6-methyl-4-(4-(1-methyl-1H-pyrazol-3-yl)benzyl)pyridine-2-carboxamide] | 94
22 | Cc1nc(C(=O)N[C@H]2COCC[C@@H]2O)cc(Cc2ccc(-c3ccn(C)n3)cc2)c1C#N [Example 115, 1,5-anhydro-2-(((5-cyano-6-methyl-4-(4-(1-methyl-1H-pyrazol-3-yl)benzyl)pyridin-2-yl)carbonyl)amino)-2,4-dideoxy-L-threo-pentitol] | 111
23 | Cc1nc(C(=O)N[C@H]2CCC[C@@H]2O)cc(Cc2ccc(Cl)nc2)c1C [Example 116, 4-((6-chloropyridin-3-yl)methyl)-N-((1S,2S)-2-hydroxycyclopentyl)-5,6-dimethylpyridine-2-carboxamide] | 104
24 | Cc1nc(C(=O)N[C@H]2CCC[C@@H]2O)cc(Cc2ccc(-c3ccn(C)n3)nc2)c1C [Example 117, N-((1S,2S)-2-hydroxycyclopentyl)-5,6-dimethyl-4-((6-(1-methyl-1H-pyrazol-3-yl)pyridin-3-yl)methyl)pyridine-2-carboxamide] | 106
